Reference: patent US10508085B2, “Compounds and methods for IDO and TDO modulation, and indications therefor” (Plexxikon Inc., priority 2016, dated 2019)

Columns and labels:
[1] = biological target: T1, Human Indoleamine 2,3-dioxygenase (IDO) (Homo sapiens, UniProt P14902); test: Human IDO enzymatic assay (kynurenine level); assay type: biochemical; conditions: 6 nM IDO, 10 μM L-Trp; geometric mean; read-out: IDO1 GMean: IC50 (μM) (Biochemical Assay)
T1 construct: His tag (N); made in house; host or cells: E. coli
Description: (§1) Human Indoleamine 2,3-dioxygenase (IDO) and Tryptophan 2,3-dioxygenase (TDO) enzymatic assay
(§2) Human IDO or TDO with N-terminal His tag is purified in E. coli. The IDO enzymatic assay is performed using 6 nM IDO and 10 μM L-Trp in the presence of 10 mM ascorbic acid, 5 μM methylene blue, 100 nM catalase and 0.01% Tween 20 in 50 mM sodium phosphate buffer (pH 6.5). 19 μL of above reaction mixture is added to wells of 384 well reaction plate containing […] of various concentrations of test compound or DMSO vehicle and incubated for 20 minutes at room temperature. The TDO enzymatic reaction assay is performed using 1 nM TDO and 350 μM L-Trp in the presence of 10 mM ascorbic acid, 0.4 μM methylene blue, 100 nM catalase and 0.01% Tween 20 in 50 mM sodium phosphate buffer (pH 6.5). 19 μL of above reaction mixture is added to wells of 384 well reaction plate containing 1 μL of various concentrations of test compound or DMSO vehicle and incubated for 70 minutes at room temperature. 16 wells containing all the components of reaction mixture and 5% DMSO serve as high control. 16 well containing all the components except enzyme of reaction mixture and 5% DMSO serves as low control. Both IDO and TDO enzymatic reactions are stopped by addition of […] of 30% TCA and incubated 30 minutes at 50° C. to hydrolyze N-formylkynurenine produced by IDO or TDO to kynurenine. Upon measuring the kynurenine level, the percentage inhibition is calculated at individual concentrations relative to high and low controls. The data is analyzed by using nonlinear regression to generate IC50 values.

[2] = biological target: T2, Human Tryptophan 2,3-dioxygenase (TDO) (Homo sapiens, UniProt P48775); test: Human TDO enzymatic assay (kynurenine level); assay type: biochemical; conditions: 1 nM TDO, 350 μM L-Trp; geometric mean; read-out: TDO GMean: IC50 (μM) (Biochemical Assay)
T2 construct: His tag (N); made in house; host or cells: E. coli
Description: as §1, §2

T2 sequence (P48775 whole entry): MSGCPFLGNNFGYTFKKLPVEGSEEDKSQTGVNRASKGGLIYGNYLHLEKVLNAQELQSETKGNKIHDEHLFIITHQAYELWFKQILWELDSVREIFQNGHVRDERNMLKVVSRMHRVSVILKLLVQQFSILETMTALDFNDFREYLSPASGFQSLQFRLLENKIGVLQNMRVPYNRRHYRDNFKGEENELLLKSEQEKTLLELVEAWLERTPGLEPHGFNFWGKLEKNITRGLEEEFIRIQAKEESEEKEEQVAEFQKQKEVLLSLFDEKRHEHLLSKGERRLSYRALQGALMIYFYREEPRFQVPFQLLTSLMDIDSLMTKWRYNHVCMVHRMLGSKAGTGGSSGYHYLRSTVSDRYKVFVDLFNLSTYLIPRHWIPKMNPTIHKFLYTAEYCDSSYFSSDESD
T1 sequence (P14902 whole entry): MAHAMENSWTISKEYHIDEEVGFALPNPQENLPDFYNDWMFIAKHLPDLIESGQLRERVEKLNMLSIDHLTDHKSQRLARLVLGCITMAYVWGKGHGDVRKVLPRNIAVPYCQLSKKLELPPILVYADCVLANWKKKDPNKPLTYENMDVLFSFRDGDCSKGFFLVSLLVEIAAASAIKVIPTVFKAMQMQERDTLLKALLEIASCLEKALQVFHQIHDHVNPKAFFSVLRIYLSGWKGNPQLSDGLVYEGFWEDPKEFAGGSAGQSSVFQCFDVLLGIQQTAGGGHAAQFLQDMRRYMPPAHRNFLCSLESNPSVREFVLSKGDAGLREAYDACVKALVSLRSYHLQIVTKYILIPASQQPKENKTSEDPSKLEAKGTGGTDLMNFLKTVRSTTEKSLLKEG

SMILES | IC50 [1] | IC50 [2]
OC(c1ccc(Cl)c2cn[nH]c12)C1CCCCC1 (stereo not shown) [Compound P-0003, (4-chloro-1H-indazol-7-yl)(cyclohexyl)methanol] | 0.0001 to 10 µM | 0.0001 to 10 µM
CCCOc1ccc(C(O)c2cccc3cncn23)cc1 (stereo not shown) [Compound P-0064, imidazo[1,5-a]pyridin-5-yl(4-propoxyphenyl)methanol] | 0.0001 to 10 µM | 10 to 100 µM
OC(c1ccc(OC(F)(F)F)cc1)c1cccc2cncn12 (stereo not shown) [Compound P-0065, imidazo[1,5-a]pyridin-5-yl(4-(trifluoromethoxy)phenyl)methanol] | 0.0001 to 10 µM | 10 to 100 µM
OC(c1ccccc1F)c1cccc2cncn12 (stereo not shown) [Compound P-0066, (2-fluorophenyl)(imidazo[1,5-a]pyridin-5-yl)methanol] | 0.0001 to 10 µM | 0.0001 to 10 µM
OC(c1ccccc1C(F)(F)F)c1cccc2cncn12 (stereo not shown) [Compound P-0067, imidazo[1,5-a]pyridin-5-yl(2-(trifluoromethyl)phenyl)methanol] | 100 to 200 µM | 0.0001 to 10 µM
OC(c1cccc(F)c1)c1cccc2cncn12 (stereo not shown) [Compound P-0068, (3-fluorophenyl)(imidazo[1,5-a]pyridin-5-yl)methanol] | 0.0001 to 10 µM | 0.0001 to 10 µM
OC(c1cccc(N2CCOCC2)c1)c1cccc2cncn12 (stereo not shown) [Compound P-0069, imidazo[1,5-a]pyridin-5-yl(3-morpholinophenyl)methanol] | 10 to 100 µM | 10 to 100 µM
OC(c1cccc(-n2ccnc2)c1)c1cccc2cncn12 (stereo not shown) [Compound P-0070, (3-(1H-imidazol-1-yl)phenyl)(imidazo[1,5-a]pyridin-5-yl)methanol] | 100 to 200 µM | 100 to 200 µM
OC(c1cccc(OCc2ccccc2)c1)c1cccc2cncn12 (stereo not shown) [Compound P-0071] | 0.0001 to 10 µM | 10 to 100 µM
CN(C)c1cccc(C(O)c2cccc3cncn23)c1 (stereo not shown) [Compound P-0072, (3-(dimethylamino)phenyl)(imidazo[1,5-a]pyridin-5-yl)methanol] | 10 to 100 µM | 10 to 100 µM
OC(c1cccc(N2CCCCC2)c1)c1cccc2cncn12 (stereo not shown) [Compound P-0073, imidazo[1,5-a]pyridin-5-yl(3-(piperidin-1-yl)phenyl)methanol] | 0.0001 to 10 µM | 10 to 100 µM
OC(c1cccc2cncn12)C1CCOCC1 (stereo not shown) [Compound P-0075, imidazo[1,5-a]pyridin-5-yl(tetrahydro-2H-pyran-4-yl)methanol] | 0.0001 to 10 µM | 0.0001 to 10 µM
OC(c1ccccc1Cl)c1cccc2cncn12 (stereo not shown) [Compound P-0077, (2-chlorophenyl)(imidazo[1,5-a]pyridin-5-yl)methanol] | > 200 µM | 10 to 100 µM
OC(c1cccc(C(F)(F)F)c1)c1cccc2cncn12 (stereo not shown) [Compound P-0078, imidazo[1,5-a]pyridin-5-yl(3-(trifluoromethyl)phenyl)methanol] | 0.0001 to 10 µM | 10 to 100 µM
CC(C)(C1CCN(C(=O)CN2CCS(=O)(=O)CC2)CC1)[C@H](O)c1cc(Cl)cc2cn[nH]c12 [Compound P-0500, (S)-1-(4-(1-(5-chloro-1H-indazol-7-yl)-1-hydroxy-2-methylpropan-2-yl)piperidin-1-yl)-2-(1,1-dioxidothiomorpholino) ethan-1-one] | 0.0001 to 10 µM | 
O=C(Cc1ccc(Cl)c(F)c1)N1CCC(C(F)(F)[C@H](O)c2cc(Cl)cc3cn[nH]c23)CC1 [Compound P-0571, (R)-1-(4-(2-(5-chloro-1H-indazol-7-yl)-1,1-difluoro-2-hydroxyethyl)piperidin-1-yl)-2-(4-chloro-3-fluorophenyl)ethan-1-one] | 0.0001 to 10 µM | 0.0001 to 10 µM

SMILES | IC50 [1] | IC50 [2]
O=C(Cc1ccc(F)c(Cl)c1)N1CCC(C(F)(F)[C@H](O)c2cc(Cl)cc3cn[nH]c23)CC1 [Compound P-0572, (R)-1-(4-(2-(5-chloro-1H-indazol-7-yl)-1,1-difluoro-2-hydroxyethyl)piperidin-1-yl)-2-(3-chloro-4-fluorophenyl)ethan-1-one] | 0.0001 to 10 µM | 0.0001 to 10 µM
CC(C)(C1CCN(/C(N)=N/C#N)CC1)C(O)c1cc(Cl)cc2cn[nH]c12 (stereo not shown) [Compound P-0573, (E)-4-(1-(5-chloro-1H-indazol-7-yl)-1-hydroxy-2-methylpropan-2-yl)-N′-cyanopiperidine-1-carboximidamide] | 0.0001 to 10 µM | 0.0001 to 10 µM
CCC(=O)N1CCC(C(F)(F)[C@H](O)c2cc(Cl)cc3cn[nH]c23)CC1 [Compound P-0574, (R)-1-(4-(2-(5-chloro-1H-indazol-7-yl)-1,1-difluoro-2-hydroxyethyl)piperidin-1-yl)propan-1-one] | 0.0001 to 10 µM | 0.0001 to 10 µM
CNC(=O)N1CCC(C(F)(F)[C@H](O)c2cc(Cl)cc3cn[nH]c23)CC1 [Compound P-0575, (R)-4-(2-(5-chloro-1H-indazol-7-yl)-1,1-difluoro-2-hydroxyethyl)-N-methylpiperidine-1-carboxamide] | 0.0001 to 10 µM | 0.0001 to 10 µM
O=C(Cc1ccnc(Cl)c1)N1CCC(C(F)(F)[C@H](O)c2cc(Cl)cc3cn[nH]c23)CC1 [Compound P-0576, (R)-1-(4-(2-(5-chloro-1H-indazol-7-yl)-1,1-difluoro-2-hydroxyethyl)piperidin-1-yl)-2-(2-chloropyridin-4-yl)ethan-1-one] | 0.0001 to 10 µM | 0.0001 to 10 µM
CCC(=O)N1CCC(C(F)(F)C(O)c2cc(Cl)cc3[nH]ncc23)CC1 (stereo not shown) [Compound P-0577, 1-(4-(2-(6-chloro-1H-indazol-4-yl)-1,1-difluoro-2-hydroxyethyl)piperidin-1-yl) propan-1-one] | 0.0001 to 10 µM | 0.0001 to 10 µM
CNC(=O)N1CCC(C(F)(F)C(O)c2cc(Cl)cc3[nH]ncc23)CC1 (stereo not shown) [Compound P-0578, 4-(2-(6-chloro-1H-indazol-4-yl)-1,1-difluoro-2-hydroxyethyl)-N-methylpiperidine-1-carboxamide] | 0.0001 to 10 µM | 0.0001 to 10 µM
CC(C)(C1CCN(C(=O)NCS(C)(=O)=O)CC1)[C@H](O)c1cc(Cl)cc2cn[nH]c12 [Compound P-0579, (S)-4-(1-(5-chloro-1H-indazol-7-yl)-1-hydroxy-2-methylpropan-2-yl)-N-((methylsulfony)methyl)piperidine-1-carboxamide] | 0.0001 to 10 µM | 0.0001 to 10 µM
CC(C)(C1CCN(C(=O)NCCF)CC1)[C@H](O)c1cc(Cl)cc2cn[nH]c12 [Compound P-0580, (S)-4-(1-(5-chloro-1H-indazol-7-yl)-1-hydroxy-2-methylpropan-2-yl)-N-(2-fluoroethyl) piperidine-1-carboxamide] | 0.0001 to 10 µM | 0.0001 to 10 µM
CC(C)(C1CCN(C(=O)NCC(F)F)CC1)[C@H](O)c1cc(Cl)cc2cn[nH]c12 [Compound P-0581, (S)-4-(1-(5-chloro-1H-indazol-7-yl)-1-hydroxy-2-methylpropan-2-yl)-N-(2,2-difluoroethyl) piperidine-1-carboxamide] | 0.0001 to 10 µM | 0.0001 to 10 µM
CC(C)(C1CCN(C(=O)NCC2CCC2)CC1)[C@H](O)c1cc(Cl)cc2cn[nH]c12 [Compound P-0582, (S)-4-(1-(5-chloro-1H-indazol-7-yl)-1-hydroxy-2-methylpropan-2-yl)-N-(cyclobutylmethyl) piperidine-1-carboxamide] | 0.0001 to 10 µM | 0.0001 to 10 µM
CNC(=O)CNC(=O)N1CCC(C(C)(C)[C@H](O)c2cc(Cl)cc3cn[nH]c23)CC1 [Compound P-0583, (S)-4-(1-(5-chloro-1H-indazol-7-yl)-1-hydroxy-2-methylpropan-2-yl)-N-(2-(methylamino)-2-oxoethyl)piperidine-1-carboxamide] | 0.0001 to 10 µM | 0.0001 to 10 µM
CC(C)(C1CCN(C(=O)NCc2ccc(C#N)cc2)CC1)[C@H](O)c1cc(Cl)cc2cn[nH]c12 [Compound P-0584, (S)-4-(1-(5-chloro-1H-indazol-7-yl)-1-hydroxy-2-methylpropan-2-yl)-N-(4-cyanobenzyl) piperidine-1-carboxamide] | 0.0001 to 10 µM | 0.0001 to 10 µM
COc1ccc(CNC(=O)N2CCC(C(C)(C)[C@H](O)c3cc(Cl)cc4cn[nH]c34)CC2)cn1 [Compound P-0585, (S)-4-(1-(5-chloro-1H-indazol-7-yl)-1-hydroxy-2-methylpropan-2-yl)-N-((6-methoxypyridin-3-yl)methyl)piperidine-1-carboxamide] | 0.0001 to 10 µM | 0.0001 to 10 µM
CN(C)c1ccc(CNC(=O)N2CCC(C(C)(C)[C@H](O)c3cc(Cl)cc4cn[nH]c34)CC2)cn1 [Compound P-0586, (S)-4-(1-(5-chloro-1H-indazol-7-yl)-1-hydroxy-2-methylpropan-2-yl)-N-((6-(dimethylamino)pyridin-3-yl)methyl)piperidine-1-carboxamide] | 0.0001 to 10 µM | 0.0001 to 10 µM
